Values joined by “and” are separate entries in the source; they are usually repeats but may differ in a detail not shown here. Equal values may be shown once. Read-outs that look alike come from different tables or passages of the source.
Key:
[1] = Table S1; ref Hansch, Leo, Hoekman, Exploring QSAR, 1995; cited from earlier work
[2] = cited from earlier work
[3] = set-up: method as in PMID 31414105, PMID 29999054; details: series B, reversed-phase HPLC; cited from earlier work
[4] = 19F NMR-based octanol/water logP determination; details: for logP: n-octanol/water; for logP / logP (individual measurement): octanol/water, 25 °C, 19F NMR
[5] = physchem
[6] = SMD implicit solvation, MN15; values taken from the literature; cited from earlier work
[7] = Shake-flask lipophilicity (logP, logD7.4) of literature examples; type: physicochemical; details: geminal dimethyl 1 to cyclopropyl 2
[8] = logP (average logP), triplicate
[9] = logP (individual measurement), single experiment
[10] = logP average with error (standard deviation), triplicate, column Error

## CCCCCCCO [1-heptanol]
[1]
  Experimental logP for selected nonfluorinated alkanols: 2.72

## CC(C)(C)CO [2,2-dimethylpropan-1-ol]
[1]
  Experimental logP for selected nonfluorinated alkanols: 1.31

## CCCCCC(C)O (centres unmarked) [2-heptanol]
[1]
  Experimental logP for selected nonfluorinated alkanols: 2.31

## CCCCC(C)O (centres unmarked) [2-hexanol]
[1]
  Experimental logP for selected nonfluorinated alkanols: 1.76

## CCCCCCC(C)O (centres unmarked) [2-octanol]
[1]
  Experimental logP for selected nonfluorinated alkanols: 2.90

## CCCC(O)CC (centres unmarked) [3-hexanol]
[1]
  Experimental logP for selected nonfluorinated alkanols: 1.65

## CC(C)C(C)O (centres unmarked) [3-methyl-2-butanol]
[1]
  Experimental logP for selected nonfluorinated alkanols: 1.28

## CCC(O)CC [3-pentanol]
[1]
  Experimental logP for selected nonfluorinated alkanols: 1.21

## CCCC(O)CCC [4-heptanol]
[1]
  Experimental logP for selected nonfluorinated alkanols: 2.22

## CCCCC(O)CCC (centres unmarked) [4-octanol]
[1]
  Experimental logP for selected nonfluorinated alkanols: 2.68

## C[C@@](CCN1Cc2cc(C#CC#C[C@H]3C[C@@H]3CO)cn2C1=O)(C(=O)NO)S(C)(=O)=O [7a]
[2]; pH 7.4
  logD7.4: 1.3

## C[C@@](CCN1Cc2cc(C#CC#C[C@H]3C[C@]3(F)CO)cn2C1=O)(C(=O)NO)S(C)(=O)=O [7b]
[2]; pH 7.4
  logD7.4: 0.9

## C[C@@](CCN1Cc2cc(C#CC#C[C@@H]3C[C@H]3CO)cn2C1=O)(C(=O)NO)S(C)(=O)=O [7c]
[2]; pH 7.4
  logD7.4: 1.1

## C[C@@](CCN1Cc2cc(C#CC#C[C@@H]3C[C@@]3(F)CO)cn2C1=O)(C(=O)NO)S(C)(=O)=O [7d]
[2]; pH 7.4
  logD7.4: 0.9

## c1ccc(C2CC2)cc1 [B1]
[3]
  logP: +3.40

## F[C@@H]1[C@H](F)[C@@]1(F)c1ccccc1 [B2]
[3]
  logP: +2.56

## FC1(F)CC1c1ccccc1 (centres unmarked) [B6]
[3]
  logP: +2.91

## FC1(F)CC1(F)c1ccccc1 (centres unmarked) [B7]
[3]
  logP: +2.94

## CN(C)CCCCc1ccc(C2COC2)cc1 [C1]
[2]; pH 7.4
  logD7.4: –0.1

## CN(C)CCCCc1ccc(C2(F)COC2)cc1 [C2]
[2]; pH 7.4
  logD7.4: –0.5

## CC(C)(F)CO [D2, 2-fluoro-2-methylpropan-1-ol]
[4]; D2 vs G2
  Δ logP branched vs linear: 0.16
[4]; [8]
  logP: 0.1
[4]; [9]
  logP: 0.11
[4]; [10]
  logP: 0.104
[4]; single experiment
  logP (individual measurement): +0.10

## CC(CO)CF (centres unmarked) [D3, 3-fluoro-2-methylpropan-1-ol]
[5]; logP (average logP)
  logP: 0.29
[5]; logP (individual measurement)
  logP: 0.28
[5]; logP average with error (standard deviation)
  logP: 0.289

## CC(CO)C(F)F (centres unmarked) [D4, 3,3-difluoro-2-methylpropan-1-ol]
[4]; [8]
  logP: 0.58
[4]; [9]
  logP: 0.583
[4]; [10]
  logP: 0.583
[4]; single experiment
  logP (individual measurement): +0.576 and +0.589

## CC(CO)C(F)(F)F (centres unmarked) [D5, 3,3,3-trifluoro-2-methylpropan-1-ol]
[4]; [8]
  logP: 0.98
[4]; [9]
  logP: 0.977
[4]; [10]
  logP: 0.978
[4]; single experiment
  logP (individual measurement): +0.978 and +0.979

## OCC1(F)CC1 [E2, (1-fluorocyclopropyl)methanol]
[4]; G9 to E2
  logP reduction: 0.72 logP units
[4]; [8]
  logP: -0.05
[4]; [10]
  logP: -0.054
[4]; single experiment
  logP (individual measurement): -0.06

## OCCC(F)CF (centres unmarked) [G7, 3,4-difluorobutan-1-ol]
[6]
  logPtheor (DFT): 1.06

## OCCC(F)(F)CF [G8]
[6]
  logPtheor (DFT): 1.30

## O=C(c1ccc(CN2CCOCC2)cc1)N1CCN(C2CC2)CC1 [compound 2]
[7]
  ΔlogD7.4: +0.73
  ΔlogP: +0.34

## CN(C)CCCCc1ccc(C(C)(C)C)cc1 [compound 3]
[2]; pH 7.4
  logD7.4: 2.5

## CN(C)CCCCc1ccc(C2(C)COC2)cc1 [compound 4]
[2]; shake-flask
  logD7.4: -0.1
  logP: 2.4

From article PMC7476584, “Lipophilicity trends upon fluorination of isopropyl, cyclopropyl and 3-oxetanyl groups” (Beilstein Journal of Organic Chemistry, 2020)
